Columns and labels:
CHP134 cells [1] = test: qPCR for SNCG and NGFR expression, CHP134; assay type: cell-based; details: hypoxia, 16 h
Method: (§1) RNA Isolation, Reverse Transcription, and Real-Time PCR. Total RNA was isolated from tissue culture plates according to the TRIzol Reagent (Invitrogen) protocol. 3 μg of total RNA was used in the reverse transcription reaction using the iScript cDNA synthesis kit (Bio-Rad). Quantitative PCR amplification was performed on the Prism 7900 Sequence Detection System (Applied Biosystems) using Taqman Gene Expression Assays (Applied Biosystems). Gene expression data were normalized to 18S rRNA.

[2] = system: tri-methylation on H3K9, H3K27; test: Immunoblots of histone methylation; assay type: cell-based; details: hypoxia; CHP134; 1 mM or 5 mM DMKG
Method: (§2) Protein isolation and western blot. Cells were washed with PBS buffer and lysed with Harvest lysis buffer supplemented with Halt inhibitors for 5-10 min. Cell lysate was centrifuged at 5000 rpm for 5 min at 4° C. The supernatant containing cytosolic proteins was transferred to a new EP tube. The insoluble part contains nuclear proteins and was further lysed with nuclear lysis buffer for 5 min at 4° C. Then the lysate was sonicated in water-bath at 4° C. for 6 cycles (1 cycle=30 s sonication and 30 s cooldown). After sonication, the cell lysate was centrifuged at 15000 rpm for 10 min. Protein concentration was determined by BOA assay. 1 μg nuclear proteins or 1 μg cytosolic proteins were boiled in loading buffer with reducing reagents, then separated with SDS-PAGE. Protein were transferred onto a nitrocellulose membrane. After blocking in 5% non-fat milk for 1 hour, the first antibody was applied. After 3×TBST washes, HRP-conjugated secondary antibodies were applied. Signals were detected with an ECL kit. The complete antibody list is in table 1.

[3] = system: acetylation on H3K9, H3K27, and total H3; test: Immunoblots of histone acetylation; assay type: cell-based; details: hypoxia, CHP134; for acetylation on H3K9, H3K27, and total H3: 5 mM acetate, 0.5 mM or 2 mM GTA
Method: as §2

CHP134 cells [4] = test: Neurite outgrowth assay, CHP134; assay type: cell-based
Method: (§3) Neurite outgrowth assay. For the differentiation of neuroblastoma cells, 1×10^5 CHP134 or SMS-KNCR cells were plated in 6 well-plate. After overnight incubation, cells in hypoxia treatment group were pre-incubated in 0.5% 02 hypoxia chamber for 6 h. Then RA was added to reach a final concentration of 10 μM. After 48 h treatment, images were taken through an Olympus phase contrast microscope (×20 magnification). The lengths of the neurites were traced and quantified using the ImageJ plugin NeuronJ. Within each sample, total neurite length was measured and normalized by the number of cell bodies, mean value from biological triplicates was reported.

[5] = infants with Canavan disease; high dose; cited from earlier work
SMS-KCNR cells [6] = test: Neurite outgrowth assay, SMS-KCNR; assay type: cell-based; details: 48 h
Method: as §3

SMS-KCNR cells [7] = test: qPCR for SNCG and NGFR expression, SMS-KCNR; assay type: cell-based; details: hypoxia; 10 μM RA combined with 5 mM acetate or 2 mM GTA, 16 h
Method: as §1

[8] = Acetate measurement in plasma; assay type: in vivo, NSG mice; details: oral GTA, 5% in drinking water; p-value not significant
Method: For acetate measurement, 10 ul of serum was mixed with 10 ul of 50 uM ^13C2-acetate. Then, the mixture was precipitated by the addition of 80 ul acetonitrile and centrifuged for 10 min at 20,000×g. 80 ul supernatant was transferred to a new tube and derivertized according to the published protocol. 2 ul sample was subjected to mass spectrometry analysis using Agilent 1290 coupled to Q-TOF 6545. […] The mobile phase were 5 mM ammonium formate and 0.1% formic acid in water (A) and 90% acetonitrile (B). […] Agilent Q-TOF was operated in positive mode with ion spray voltage at 3500 V. The ratio of acetate to ^13C2-acetate was calculated using Agilent Profinder software B.08.00.
Mouse xenograft model. In viva studies were performed in accordance with protocols approved by the Institutional Animal Care and Use Committee at Stanford University and in compliance with all regulatory standards, 6 to 8-week-old male NSG mice were provided by Dr. Erinn Rankin. 2×10^6 CHP134 cells suspended in […] of RPMI-1640 with 50% Matrigel (BD Biosciences) were implanted subcutaneously into the dorsal flank of the mice. Tumor growth was recorded using digital caliper every other day, and tumor volumes were estimated using the formula: (L×W^2)/2, where L=length and W=width of tumor. The animals were randomized into 4 groups (Control, RA, GTA and GTA+RA) when the tumor volumes reached approximately 150 mm^3. […]

CHP134 mice xenografts = test: Mouse xenograft model; assay type: in vivo; details: 10 mg/kg RA i.p. daily; after 23 days' treatment
Method: Mouse xenograft model. […] Tumor growth was recorded using digital caliper every other day, and tumor volumes were estimated using the formula: (L×W^2)/2, where L=length and W=width of tumor. The animals were randomized into 4 groups (Control, RA, GTA and GTA+RA) when the tumor volumes reached approximately 150 mm^3. 10 mg/kg RA or DMSO vehicle was injected intraperitoneally daily for 3 weeks. Mice received GTA in the drinking water (5% by weight).

[9] = Pharmacokinetics of RA in NSG mice; assay type: in vivo
Method: For 13-cis-retinoic acid measurement, serum samples were collected at 0.5 h, 1 h, 2 h and 6 h after RA injection (10 mg/kg, i.p.). 10 ul serum was mixed with 90 ul extraction buffer (ethyl acetate:n-hexane:IPA, 30:60:10). After 20 min on a shaker at 120 rpm, the mixture was centrifuged at 5000 g for 5 min. The organic layer was collected into a new tube and dried using speed vacuum. The residue was reconstituted with 100 ul of 5 mM ammonium formate in water/acetonitrile (1:1). 5 ul sample was subjected to mass spectrometry analysis using Agilent 1290 coupled to QQQ 6470. […] The mobile phase was 5 mM ammonium formate and 0.1% formic acid in water (A) and 90% acetonitrile (B). […] Agilent QQQ 6470 was operated in positive mode with ion spray voltage at 3000 V. The MRM transitions were 301.2→159.1/205.1. Data was processed by Agilent MassHunter Quantitative Analysis for QQQ B.07.01. (Agilent Technologies)

CHP134 cells [10] = test: Immunofluorescence staining of β-tubulin III / MAP2; assay type: cell-based; details: 10 μM RA, 72 h
Method: Immunofluorescence staining. […] cells were seeded into 8-champer slides with a density of 6000 cells/well and incubated with indicated treatment for 3 days. Cells were fixed with 4% PFA in 0.1% PBS-tween at room temperature for 30 min followed by permeabilization with 0.1% Triton X-100 in PBS at room temperature for 10 min. The cells were washed with PBS twice and blocked with 2.5% horse serum at room temperature for 1 hour. Then, cells were subjected to immunofluorescence staining with primary antibody overnight at 4° C. After twice washes with PBS, cells were incubated with Alexa Fluor 594-labeled anti-rabbit secondary antibody (Life Technologies) at room temperature for 1 hour followed by staining with DAP for 20 min. Images were acquired with Leica DMi8 microscope.

CHP134 cells [11] = test: RNA-Seq pathway analysis of RA-upregulated genes; assay type: cell-based; details: 24 h RA vs DMSO
Method: RNA Sequencing. The total RNA from four treatment groups (Nor_Ctrl, Nor_RA, Hyp_Ctrl and Hyp_RA, 3 replicates) was extracted using Trizol reagent according to the manufacturer's instructions (n=3). The RNA-seq library was constructed and subjected to 150 bp paired-end sequencing on an Illumina sequencing platform (Novogene). RNA-seq analysis was performed using the kallisto and sleuth analytical pipeline. In brief, a transcript index was generated with reference to Ensembl version 57 for hg19. Paired-end mRNA-seq reads were pseudo-aligned using kallisto (v0.42.4) with respect to this transcript index using 100 bootstraps (-b 100) to estimate the variance of estimated transcript abundances. Transcript-level estimates were aggregated to transcripts per million (TPM) estimates for each gene, with gene names assigned from Ensembl using biomaRt. Differential gene expression analysis was performed using the sleuth R package across pairwise groups (normoxia DMSO vs. normoxia RA, normoxia DMSO vs. hypoxia DMSO, normoxia RA vs. hypoxia RA) using Wald tests, with significant hits called with a sleuth q-vaulue<0.05 and fold change estimate b>abS(In(2)).

CHP134 cells [12] = details: hypoxia vs normoxia; U-13C-acetate 3 h
Method: Metabolic tracing study. For glucose isotope tracing, CHP134 cells were pretreated under normoxia or hypoxia for 16 h (n=3). Then the medium was changed to DMEM:F12 with 3.15 g/L ^13C6-glucose with 10% dialyzed FBS for 3 h. For acetate isotope tracing, the procedure was same as glucose tracing except that the complete DMEM:F12 medium was supplemented with 2 mM ^13C2-acetate.
Liquid chromatography-mass spectrometry analysis. For the metabolic tracing study, cells were washed with cold PBS, lysed in 80% Ultra LC-MS acetonitrile on ice for 15 min, centrifuged for 10 min at 20,000×g, and supernatant was subjected to mass spectrometry analysis. Liquid chromatography was performed using an Agilent 1290 Infinity LC system (Agilent, Santa Clara, US) coupled to a Q-TOF 6545 mass spectrometer (Agilent, Santa Clara, US). A hydrophilic interaction chromatography method (HILIC) with a BEH amide column (100 ×2.1 mm i.d., 1.7 μm; Waters) was used for compound separation at 35° C. with a flow rate of 0.3 ml/min. The mobile phase A consisted of 25 mM ammonium acetate and 25 mM ammonium hydroxide in water and mobile phase B was acetonitrile. The gradient elution was 0-1 min, 85 % B; 1-12 min, 85% B→65% B; 12-12.2 min, 65% B→40% B; 12.2-15 min, 40% B. After the gradient, the column was re-equilibrated at 85% B for 5 min. The overall runtime was 20 min, and the injection volume was 5 μL. […]

[13] = system: chromatin accessibility at RAR/RXR binding sites; details: hypoxia; 5 mM acetate
Method: ATAC-seq. ATAC-seq was performed and analyzed as previously described (n=2). […] -O 5 -m 30 -q 15. Bowtie 2 version 2.3.1 was used to align trimmed reads to hg19 with flags -q -phred33-X 2000 -fr -p 8 -x hg19, followed by samtools sort command. Duplicates were marked with Picard-tools version 1.83, then samtools view with flags -b -f 1 -F12 -L were used to filter mitochondria mapping reads with a bed file containing all chromosomes except chrM. Filtered mapping files are transferred into coverage bigwig file using deeptools with default bin size (10 bps). SPP/phantom was run to obtain the fragment length with maximum Strand cross-correlation. MACS2 callpeak function was then performed with flags -q 0.05 -nomodel-extsize=½ fragment length obtained from SPP. Associate p-values for each peak is generated and extracted from MACS2 output. Ranked gene lists were created from the RNA-Seq and ATAC-Seq datasets following differential testing. Gene set enrichment analysis were performed using the GSEA with the C2 (CP:REACTOME) MSigDB v6.2.

[14] = 10 μM RA combined with 5 mM acetate or 2 mM GTA

For `COC(=O)CCC(=O)C(=O)OC` [DMKG, Dimethyl-α-ketoglutarate], the “expression of NGFR and SNCG” value (CHP134 cells [1]; 10 μM RA combined with 5 mM DMKG) was “did not restore the expression of NGFR and SNCG”, the histone hypermethylation [2] was “reduced histone hypermethylation” and the histone acetylation ([3]; 1 mM or 5 mM DMKG) was “did not significantly increase histone acetylation”.

For `CC(=O)OCC(COC(C)=O)OC(C)=O` [GTA, glycerol triacetate], the “differentiative activity as a single agent” value (CHP134 cells [4]; GTA alone) is given as “little to no differentiative activity”, the “RA-induced neuron-like morphological changes” value (CHP134 cells [4]; hypoxia, 10 μM RA plus 2 mM GTA, 48 h) is given as “restored the RA-induced neuron-like morphological changes” and the toxicity [5] is given as “no detectable toxicity”. The “expression of NGFR and SNCG” value (CHP134 cells [1]; [14]) was “significantly restored the expression of NGFR and SNCG”, the “RA-induced neuron-like morphological changes” value (SMS-KCNR cells [6]; hypoxia, 10 μM RA plus 2 mM GTA) was “restored the RA-induced neuron-like morphological changes” and the “expression of NGFR and SNCG” value (SMS-KCNR cells [7]) was “significantly restored the expression of NGFR and SNCG”. The “plasma acetate concentration vs control group” value [8] was “slight increase of plasma acetate concentration” and the “acetylation on H3K9, H3K27, and total H3” value [3] was “restored acetylation on H3K9, H3K27, and total H3”.

With `CC1=C(/C=C/C(C)=C/C=C/C(C)=C\C(=O)O)C(C)(C)CCC1` [RA, 13-cis-retinoic acid] the “neurite outgrowth and differentiation morphology” value (CHP134 cells [4]; 10 μM RA, 48 h, hypoxia (0.5% O2) vs normoxia) was “partially diminished nerite outgrowth and the differentiation morphology”, the “cell morphological changes / neurite outgrowth” value (CHP134 cells [4]; 10 μM RA, 48 h, normoxia (21% O2)) was “induced obvious cell morphological changes to a mature neuronal-like phenotype characterized by neurite outgrowth” and the “neurite outgrowth and differentiation morphology” value (SMS-KCNR cells [6]; 10 μM RA, hypoxia (0.5% O2) vs normoxia) was “partially diminished nerite outgrowth and the differentiation morphology”. The “cell morphological changes / neurite outgrowth” value (SMS-KCNR cells [6]; 10 μM RA, normoxia (21% O2)) was “induced obvious cell morphological changes to a mature neuronal-like phenotype characterized by neurite outgrowth”, the “anti-tumor effect (tumor volume, tumor weight)” value (CHP134 mice xenografts) was “didn't show anti-tumor effect” and the “half-life of RA” value ([9]; 10 mg/kg i.p.) was “relative short half-life”. For the same molecule, the “time blood RA concentration maintained above 10 uM” value ([9]; 10 mg/kg i.p.) was “around 2 h”, the “blood RA concentration” value ([9]; 10 mg/kg i.p., at 6 h after injection) was “reduced to the basal level” and the “blood RA concentration” value ([9]; 10 mg/kg i.p., maintained for around 2 h) was “above 10 uM”. For the same molecule, the “time of peak blood RA concentration” value ([9]; 10 mg/kg, after i.p. injection) was 30 min, the “β-tubulin III/MAP2 positive neurites” value (CHP134 cells [10]; hypoxia vs normoxia) was “partially suppressed” and the “β-tubulin III/MAP2 positive neurites” value (CHP134 cells [10]; normoxia) was “increased β-tubulin III/MAP2 positive neurites”. The “pathway analysis of RA-upregulated genes” value (CHP134 cells [11]) was “enrichment of NGF signaling, transmission across of chemical synapses and neuronal system genes”.

With `CC(=O)[O-].[Na+]` [acetate, Sodium acetate] the “expression of NGFR and SNCG” value (CHP134 cells [1]; [14]) was “significantly restored the expression of NGFR and SNCG”, the “cellular acetyl-CoA production (13C labeled acetyl-CoA[M+2])” value (CHP134 cells [12]) was “promote cellular acetyl-CoA production” and the “expression of NGFR and SNCG” value (SMS-KCNR cells [7]) was “significantly restored the expression of NGFR and SNCG”. The chromatin accessibility [13] was “partially restored chromatin accessibility”, the “chromatin accessibility of genes with RAR/RXR binding sites” value [13] was “increased chromatin accessibility” and the “acetylation on H3K9, H3K27, and total H3” value [3] was “restored acetylation on H3K9, H3K27, and total H3”.
